From patent US20100022542A1, “COMPOUNDS EXHIBITING THROMBOPOIETIN RECEPTOR AGONISM” (Shionogi & Co., Ltd., priority 2000, published 2010)

target: T1, human TPO receptor (hTPOR) (Homo sapiens, UniProt P40238); assay: Proliferation of TPO dependent BaF/hTPOR cells, WST-1, thrombopoietic activity ED50 (Test Example 3); format: cell-based; conditions: 20 h incubation then WST-1 4 h, absorbance at 450 nm
T1 construct: expressed in transfected cells; host or cells: BaF-B03 (murine IL-3 dependent cell line)
T1 sequence (P40238 26-635): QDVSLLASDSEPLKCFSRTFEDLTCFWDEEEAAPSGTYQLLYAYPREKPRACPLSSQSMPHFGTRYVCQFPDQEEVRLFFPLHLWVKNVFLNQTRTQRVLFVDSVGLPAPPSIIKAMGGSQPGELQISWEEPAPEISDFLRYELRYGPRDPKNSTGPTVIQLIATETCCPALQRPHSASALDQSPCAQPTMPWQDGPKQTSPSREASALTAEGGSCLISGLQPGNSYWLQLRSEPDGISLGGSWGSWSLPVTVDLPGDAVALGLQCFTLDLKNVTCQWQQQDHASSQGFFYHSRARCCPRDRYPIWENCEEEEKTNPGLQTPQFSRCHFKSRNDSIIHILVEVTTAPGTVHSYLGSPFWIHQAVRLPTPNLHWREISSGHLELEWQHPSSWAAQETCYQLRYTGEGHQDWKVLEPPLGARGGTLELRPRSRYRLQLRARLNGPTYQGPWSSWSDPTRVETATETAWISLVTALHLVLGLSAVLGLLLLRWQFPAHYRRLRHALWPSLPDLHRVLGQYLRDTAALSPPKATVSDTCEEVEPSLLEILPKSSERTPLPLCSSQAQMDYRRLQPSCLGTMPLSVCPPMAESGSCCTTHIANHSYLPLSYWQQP
Text: FIG. 2: The chart represents proliferation of the human TPO dependent cells bearing human TPO receptors by the present invention compound, wherein the x-axis is concentration of the present invention compound, and the y-axis is the absorbance as an indicator of cell proliferation. Open circles indicate a response of human TPO, and closed circles indicate a response of the compound (B-1).
The TPO dependent BaF/hTPOR cell line which was established by introducing human TPO receptor (hTPOR) into BaF-B03 cells according to Collins et al (J. Cell. Physiol., 137:293-298 (1988)) was used to test the thrombopoietic activity of the present compound. The DNA sequences and encoded peptide sequences for human hTPOR have been described by Vigon et al (Proc. Natl. Acad. Sci. USA, 89:5640-5644 (1992)). TPO dose not have any ability to support proliferation of interleukin-3 dependent parental cell line BaF-B03. BAF/hTPOR cells were maintained in RPMI medium and WEHI-3B conditioned medium as a source of murine interleukin-3 (IL-3). These cells were washed and resuspended in RPMI medium without a source of murine IL-3 and seeded into each well of 96-well microtiter plates at a density of 5×10^4 cells per well in the absence or presence of various concentration of hTPO or the present compound. After incubation at 37° C. for 20 hours in the 5% CO2 incubator, 10% WST-1 reagent (Takara Biomedicals, Japan) was added to each wells and the cells were further incubated for 4 hours. Effect of the present compound on the growth of BAF/mTPOR cell line which was established by introducing murine TPO receptor (mTPOR) into BAF-B03 cells is shown in FIG. 3. Table 8 exemplifies the ED50 for tested compounds of the present invention, wherein the ED50 is the half concentration of the concentration showing the maximum thrombopoietic activity.

SMILES | EC50 [nM]
CC(Cc1ccc(C(=O)Nc2nc(-c3ccc(Cl)c(Cl)c3)cs2)cc1)C(=O)O (stereo not drawn) [Compound G-3] | 430
O=C(Nc1nc(-c2ccc(Cl)c(Cl)c2)cs1)c1ccc(CC(Cl)C(=O)O)cc1 (stereo not drawn) [Compound G-4] | 240
COC(=O)C(Cl)Cc1ccc(C(=O)Nc2nc(-c3ccc(Cl)c(Cl)c3)cs2)cc1 (stereo not drawn) [Compound G-5] | 260
O=C(Nc1nc(-c2ccc(Cl)c(Cl)c2)cs1)c1ccc(CC(F)C(=O)O)cc1 (stereo not drawn) [Compound G-6] | 370
CCOC(=O)C(F)Cc1ccc(C(=O)Nc2nc(-c3ccc(Cl)c(Cl)c3)cs2)cc1 (stereo not drawn) [Compound G-7] | 400
CC(c1ccc(C(=O)Nc2nc(-c3ccc(Cl)c(Cl)c3)cs2)cc1)C(Cl)C(=O)O (stereo not drawn) [Compound G-8] | 360
Cc1sc(NC(=O)c2ccc(/C=C(\Cl)C(=O)O)cc2)nc1-c1ccc(F)cc1F [Compound J-11] | 311
Cc1sc(NC(=O)c2ccc(/C=C(\Cl)C(=O)O)cc2)nc1-c1cccc(C(F)(F)F)c1F [Compound J-12] | 107
Cc1sc(NC(=O)c2ccc(/C=C(\Cl)C(=O)O)cc2)nc1-c1cccc(Br)c1 [Compound J-13] | 116
Cc1sc(NC(=O)c2ccc(/C=C(\Cl)C(=O)O)cc2)nc1-c1cccc(C(F)(F)F)c1 [Compound J-14] | 36
CCCCCc1cccc2c1CCc1sc(NC(=O)c3ccc(/C=C(\Cl)C(=O)O)cc3)nc1-2 [Compound J-15] | 11

Now from value to molecule:

EC50 [nM] | SMILES
208 | COC(=O)C#Cc1ccc(C(=O)Nc2nc(-c3ccc(Cl)c(Cl)c3)cs2)cc1 [Compound L-1]
143 | O=C(O)C#Cc1ccc(C(=O)Nc2nc(-c3ccc(Cl)c(Cl)c3)cs2)cc1 [Compound L-2]
321 | COC(=O)C#Cc1ccc(C(=O)Nc2nc(-c3ccc(Cl)c(Cl)c3)cs2)cc1OC [Compound L-3]
256 | COc1cc(C(=O)Nc2nc(-c3ccc(Cl)c(Cl)c3)cs2)ccc1C#CC(=O)O [Compound L-4]
